Reference: patent US20250213622A1 (priority 2022, published 2025)
Counter-ions that a name gives are not always drawn.

Columns and labels:
Type in all cases: in vivo, C57BL/6J mice
[1] = system: subacute MPTP mouse model; test: Open field test, total movement distance, subacute MPTP mouse model; settings: for Total movement distance in the open field test: Selegiline 0.5 mg/kg/d i.p.
Experimental: (§1) The mice were weighed and recorded, and injected subcutaneously at the back of the neck at 20 mg/kg, once a day for 5 consecutive days. Subsequent experiments were performed on the 1st, 3rd, 7th and 14th days after the last administration.
(§2) 128 healthy adult mice were randomly divided into six groups according to body weight, including normal control (Sham) group (n=20), MPTP model group (n=28), low-dose Lepalvir (10 U/kg/d) treatment group (n=20), medium-dose Lepalvir (20U/kg/d) treatment group (n=20), high-dose Lepalvir (40 U/kg/d) treatment group (n=20) and positive control drug Selegiline (0.5 mg/kg/d) treatment group (n=20). Among them, mice in the Lepalvir and Selegiline treatment groups were injected with corresponding doses intraperitoneally 1 hour after the first MPTP administration, and continued for 7 or 14 days, once a day. Mice in the MPTP model group were given an equal volume of normal saline (0.1 mL/10 g). Mice in the sham group were only given an equal volume of normal saline (0.1 mL/10 g).
(§3) Behavioral assessment was performed on the 1st, 3rd, 7th and 14th days after the last administration of MPTP.
The open field test was used to evaluate the autonomous movement ability of mouse. The open field apparatus was made of opaque blue plastic and was 60 cm×60 cm×45 cm in size. During the test, each mouse was placed into the box from the central area, and the movement trajectory of each mouse within 5 minutes was recorded at the same time. The total movement distance was calculated using software (Clever Sys Inc., VA, USA). After each mouse was tested, the open field area was wiped with 75% ethanol to prevent the smell of the previous mouse from affecting the next mouse.

[2] = system: Nissl-positive neurons in the substantia nigra pars compacta; test: Nissl staining, neuron count in substantia nigra pars compacta, subacute MPTP mouse model; settings: for Number of Nissl-positive neurons in the substantia nigra pars compacta: Selegiline 0.5 mg/kg/d i.p.
Experimental: as §1, §2
(§4) On day 7 and day 14 after the last administration of MPTP respectively, half of the mice in each group were selected, anesthetized with 4% chloral hydrate, and perfused with saline +4% PFA to obtain brain tissue. After gradient dehydration in 20% (v/v) and 30% (v/v) sucrose solutions for 3 days respectively, the mouse brain tissue was embedded in OCT glue and frozen, and the Microtome Cryostat (Leica) was used to continuously slice the tissue (20 μm), and the brain slices of the relevant regions were collected, placed in freezing solution (glycerol: 0.01M PBS=1:1) and stored at −80° C. for use.
Nissl bodies are a type of basophilic substance in the cytoplasm that is widely found in various neurons, and thus the number of neurons in the relevant brain regions was calculated by Nissl staining. Staining was performed using the Nissl staining kit.
(§5) Immunohistochemical positive cells were counted using the Stereo Investigator (MBF bioscience) system and the number of Nissl body-positive cells and TH+ cells in the substantia nigra pars compacta were calculated. […]

[3] = system: TH-positive neurons in the substantia nigra pars compacta; test: TH (tyrosine hydroxylase) staining, neuron count in substantia nigra pars compacta, subacute MPTP mouse model; settings: for Number of TH-positive neurons in the substantia nigra pars compacta: Selegiline 0.5 mg/kg/d i.p.
Experimental: as §1, §2, §4
TH mainly marks dopaminergic neurons in the substantia nigra pars compacta. […] The midbrain slices were obtained, washed once with 0.01 M PBS for 10 min, and then incubated with 3% H2O2 for 15 min to remove endogenous peroxidase activity. […]
as §5

[4] = system: subacute MPTP mouse model; test: Rotarod test, latency, subacute MPTP mouse model; settings: for Latency time: Selegiline 0.5 mg/kg/d i.p.
Experimental: as §1, §2, §3
The rotarod test was used to evaluate the motor balance and limb coordination of mouse. The mouse was placed on the drum of the Rotarod tester, and the speed was set to increase uniformly from 5 rpm/min to 25 rpm/min within 2 minutes. When the mouse fell from the drum to the sensing area below, an infrared sensor would receive the signal and record the time the mouse moved on the drum of the instrument. Before the formal test, three consecutive trainings were required for each mouse. During the test, three consecutive measurements are required, and the average falling time was selected (latency).

[5] = system: subacute MPTP mouse model; test: Pole climbing test (T-Turn, T-TLA), subacute MPTP mouse model; settings: Selegiline 0.5 mg/kg/d i.p.
Experimental: as §1, §2, §3
The pole climbing test was used to evaluate the motor coordination function of mouse. The pole used was 1 cm in diameter and 50 cm in height. A wooden ball with a diameter of 1.2 cm was fixed to the top of the pole. The pole was wrapped with anti-slip tape to prevent the mouse from slipping. The mouse was placed on the top of the pole with its head facing up. When the mouse started to […], the timer started and the time it took for the mouse to cross the top of the pole (T-Turn) from the start of the movement and the time it took for the mouse to climb down to the bottom with four paws landing on the ground from the start of the movement (T-TLA) were recoded. Before the formal test, three consecutive trainings were required for each mouse. During the test, three consecutive measurements were required, and the shortest time was selected.

[6] = positive control Selegiline 0.5 mg/kg/d, day 1, 3, 7, and 14
[7] = positive control Selegiline 0.5 mg/kg/d, day 7 and 14

C#CCN(C)[C@H](C)Cc1ccccc1 [Selegiline, Selegiline hydrochloride] was tested, and the “Total movement distance in the open field test” value (from here on “Total movement distance”) ([1]; 1 day after last MPTP) was 1269 ± 138 mm, the “Total movement distance” value ([1]; 3 days after last MPTP) was 1359 ± 68 mm and the “Total movement distance” value ([1]; 7 days after last MPTP) was 684 ± 68 mm. The “Total movement distance” value ([1]; 14 days after last MPTP) was 578 ± 51 mm, the “Effect on MPTP-induced reduction in total distance traveled (in words)” value [1, 6] was “significantly improved” and the “Number of Nissl-positive neurons in the substantia nigra pars compacta” value ([2]; Day 7 after last MPTP) was 10688 ± 458. The “Number of Nissl-positive neurons in the substantia nigra pars compacta” value ([2]; Day 14 after last MPTP) was 11024 ± 539, the “Effect on MPTP-induced decrease in number of Nissl-stained positive neurons (in words)” value [2, 7] was “significantly improved” and the “Number of TH-positive neurons in the substantia nigra pars compacta” value ([3]; Day 7 after last MPTP) was 9578 ± 441. For the same compound, the “Number of TH-positive neurons in the substantia nigra pars compacta” value ([3]; Day 14 after last MPTP) was 9670 ± 692, the “Effect on MPTP-induced decrease in number of TH-positive neurons (in words)” value [3, 7] was “significantly improved” and the Latency time ([4]; Day 1 after last MPTP) was 160.2 ± 4.8 s. The Latency time ([4]; Day 3 after last MPTP) was 173.1 ± 2.2 s, the Latency time ([4]; Day 7 after last MPTP) was 168.5 ± 3.5 s and the Latency time ([4]; Day 14 after last MPTP) was 166.7 ± 4.2 s. For the same compound, the “Effect on MPTP-induced shortening of rotarod latency (in words)” value [4, 6] was “significantly improved”, the T-TLA ([5]; Day 1 after last MPTP) was 9.23 ± 0.65 s and the T-Turn ([5]; Day 1 after last MPTP) was 1.57 ± 0.10 s. The T-TLA ([5]; Day 3 after last MPTP) was 5.96 ± 0.49 s, the T-Turn ([5]; Day 3 after last MPTP) was 1.35 ± 0.09 s and the T-TLA ([5]; Day 7 after last MPTP) was 7.61 ± 0.91 s. It also gave a T-Turn ([5]; Day 7 after last MPTP) of 1.49 ± 0.14 s, a T-TLA ([5]; Day 14 after last MPTP) of 7.90 ± 1.17 s and a T-Turn ([5]; Day 14 after last MPTP) of 1.49 ± 0.20 s.
